# Measurements: ChEMBL document CHEMBL1144942, “Enantioselective responses to a phosphorothioate analogue of lysophosphatidic acid with LPA3 receptor-selective agonist activity” (J Med Chem, 2003)
# Tests used:
# OVCAR-3 = assay: Agonistic activity in human OVCAR-3 (ovarian cancer cells); assay type: functional, cell-based
# HT-29 = assay: Agonistic activity in human HT-29 colon cancer cells; assay type: functional, cell-based
SMILES,EC50 (OVCAR-3),EC50 (HT-29)
CCCCCCCCCCCCCCCCCC(=O)OC[C@H](COP(O)(O)=S)OC,0.009 µM,< 1000 µM
CCCCCCCCCCCCCCCCCC(=O)OC[C@@H](COP(O)(O)=S)OC,0.0465 µM,< 1000 µM
